According to US12329738B2, “Urolithin A and a composition containing same for external use in inflammations of various etiologies” (WARSZAWSKI UNIWERSYTET MEDYCZNY, priority 2018, dated 2025):

How the values were obtained:
[1] = test system: TNF-alpha; test: TNF-alpha production by macrophages from human peripheral blood monocytes (ELISA); format: cell-based; details: 40 μM; LPS 100 ng/mL, 24 h; FIG. 16
Procedure: Monocytes were isolated from peripheral human blood by a standard method using dextran sedimentation and Ficoll Hypaque gradient centrifugation. After isolation, monocytes were suspended in RPMI 1640 medium supplemented with L-glutamine, HEPES, streptomycin, amphotericin and gentamicin, and 20% autologous serum. Cell culture was carried out under these conditions for 7 days. […] After 24h, TNF-alpha level in the medium was determined using the immunochemical ELISA method (BD biosciences). The obtained results of experiments on in vitro models were analyzed using the Statistica 13 program (StatSoft, Inc., Tulsa, OK, USA) and presented as mean values±SEM. Statistical significance was set at P≤0.05. The results with established normal distribution in the D'Agostin and Pearson test were prepared using analysis of variance (ANOVA). Parametric post-hoc analysis was performed using Dunnett's test.

[2] = test system: Wistar rats (DNCB-induced atopic dermatitis); test: Ear thickness (edema) in DNCB-induced atopic dermatitis rat model; format: in vivo
Procedure: It is similar to the indications for use of hydrocortisone, which was used as a positive control in the study. Urolitin A was obtained by synthesis according to Bialonska et al. (Bialonska et al., 2009) or purchased from Sigma-Aldrich. The ointment containing urolithin A was prepared by emulsifying the weighed substance into a solid vehicle (white petrolatum) using an unguator. Wistar rats aged 5-6 weeks (at the start of the experiment) kept under standard conditions with free access to feed and water were used for the tests. The animals were divided into 5 groups, 8 individuals in each group. To prepare 2,4-dinitrochlorobenzene (DNCB) composition inducing inflammation, DNCB was dissolved in 70% ethanol to a final concentration of 1.5% (w/v). Therapeutic composition was an ointment based on white petrolatum with 0.2% or 1.0% urolithin A added. The control ointment was white petrolatum without addition of urolithin A. The induction of chronic atopic dermatitis involved local 9-fold infiltration with 60 μl 1.5% 2,4-dinitrochlorobenzene (DNCB) on each (external and internal) surface of the right ear over 3 weeks (3 times a week). Negative control was the right ear of rats without induction inflammation. Treatment of atopic dermatitis with 0.2% or 1.0% urolithin composition and white petrolatum (control) or 1.0% hydrocortisone composition (positive control) was started eight days after sensitization—one day before the fourth application of DNCB. Ointments with appropriate for given group drug added were applied in a total volume of about 20 μl to each ear surface one day before and 6 hours after each DNCB application (for a period of 3 weeks). The negative control group consisted of rats without induced inflammation and treated with white petrolatum in a regimen analogous to the composition of urolithin A or hydrocortisone. Ear thickness was assessed using an electronic mini caliper the day before inflammation was induced (day 0) and then on days 4 and 8 prior to treatment and on days 4, 8, 12, 16, […] of therapy with urolithin A composition (on days 12, 16, 20, 24, 28 and 32 after inflammation inducing, respectively). The experimental results obtained were analyzed using the Statistica 7.1 program (StatSoft, Inc., Tulsa, OK, USA) and presented as mean values±SE. Statistical significance was set at P≤0.05. The results with established normal distribution in the D'Agostin and Pearson test were prepared using two- or three-factor analysis of variance (ANOVA). Parametric post-hoc analysis for individual time points was performed using the Bonferroni test.

[3] = test system: Wistar rats (DNCB-induced atopic dermatitis); test: Histologic assessment of ear skin in atopic dermatitis rat model; format: in vivo; details: lesions treated with the composition of urolithin A; day 32; FIG. 8
Procedure: Wistar rats aged 5-6 weeks (at the start of the experiment) kept under standard conditions with free access to feed and water were used for the tests. The animals were divided into 5 groups, 8 individuals in each group. To prepare 2,4-dinitrochlorobenzene (DNCB) composition inducing inflammation, DNCB was dissolved in 70% ethanol to a final concentration of 1.5% (w/v). Therapeutic composition was an ointment based on white petrolatum with 0.2% or 1.0% urolithin A added. The control ointment was white petrolatum without addition of urolithin A. The induction of chronic atopic dermatitis involved local 9-fold infiltration with 60 μl 1.5% 2,4-dinitrochlorobenzene (DNCB) on each (external and internal) surface of the right ear over 3 weeks (3 times a week). Negative control was the right ear of rats without induction inflammation. Treatment of atopic dermatitis with 0.2% or 1.0% urolithin composition and white petrolatum (control) or 1.0% hydrocortisone composition (positive control) was started eight days after sensitization—one day before the fourth application of DNCB. Ointments with appropriate for given group drug added were applied in a total volume of about 20 μl to each ear surface one day before and 6 hours after each DNCB application (for a period of 3 weeks). […]

[4] = test system: TNF-alpha; test: TNF-alpha production by THP-1 derived macrophages (ELISA); format: cell-based, human; details: 40 μM; LPS stimulation; FIG. 13
Procedure: Monocytes of the THP-1 line were cultured in RPMI 1640 medium supplemented with 10% FBS and 2 mM glutamine. For transformation of monocytes into macrophages, the cells were treated with 12.5 ng/mL PMA (phorbol 12-myristate 13-acetate) for 48 hours, then washed and incubated for 24 hours in a culture medium without PMA. After this time, urolithin A, urolithin B, iso-urolithin A and the corresponding glucuronides (GUA, GUB and GiUA) were added to the cells at a concentration of 40 μM. After 1 hour of incubation with the compounds, the cells were stimulated with LPS from Escherichia coli (10 ng/mL).
To assess the level of TNF-alpha production, the cells were incubated for 6 hours, to assess the expression of mRNA for TNF-alpha, the cells were incubated for 24 hours, to assess the effect on ERK1/2 phosphorylation, the cells were incubated for 35 minutes.
The level of TNF-alpha in the culture medium was determined using the immunochemical ELISA method (BD biosciences). Evaluation of the expression of mRNA for TNF-alpha was performed using real time PCR. After 24 hours of incubation, RNA was isolated using NucleoSpin RNA Clean-up (Macherey-Nagel). The amount and quality of isolated RNA was determined using 2100 Bioanalyzer (Agilent Technologies). The expression level of mRNA for TNF-α was determined using Brilliant II SYBR Green QPCR Kit and Aria Mx Real-Time PCR thermocycler (Agilent Technologies). The following were used as primers for TNF-alpha: forward: 5′-[…]-3′, reverse: 5′-[…]-3′. Beta-actin (ACTB) was used as the housekeeping gene; primer forward: 5′-[…]-3′, reverse: 5′-[…]-3′).
The obtained results of experiments on in vitro models were analyzed using the Statistica 13 program (StatSoft, Inc., Tulsa, OK, USA) and presented as mean values±SEM. Statistical significance was set at P≤0.05. The results with established normal distribution in the D'Agostin and Pearson test were prepared using analysis of variance (ANOVA). Parametric post-hoc analysis was performed using Dunnett's test.

[5] = Thermal, acid and UV stability of urolithin A (UPLC-DAD-MS); format: physicochemical; details: 80 μM in deionized water or 1M HCl, 24 hours at 37° C. or 12 hours at 80° C.; UVA 365 nm 12 hours
Procedure: Urolithin A at 80 μM was suspended in deionized water or 1M HCl and incubated for 24 hours at 37° C. or for 12 hours at 80° C. The urolithin A solution was also irradiated for 12 hours with a UV lamp emitting UVA radiation with the maximum at 365 nm. The concentration of urolithin A after incubation was determined using the UPLC-DAD-MS method according to Piwowarski et al. 2016.

O=c1oc2cc(O)ccc2c2ccc(O)cc12 [urolithin A]
Inhibition of TNF-alpha production by macrophages from human peripheral blood monocytes [1]: most active compound
Ear edema, comparison of urolithin doses with each other ([2]; 0.2% vs 1%, p<0.05): more effective at a concentration of 1%
Time profile of anti-edema effect, urolithin A vs. hydrocortisone ([2]; later treatment period (from day 12 to 28 of treatment), dose 0.2 and 1%, p<0.01): more effective in the later treatment period
Ear edema (ear thickness) after local therapy ([2]; topical ointment in white petrolatum, urolithin A 0.2 and 1.0%, hydrocortisone 1%, urolithin A p<0.001, hydrocortisone p<0.01): reduced
Anti-inflammatory (ear edema) effect compared to hydrocortisone 1% ([2]; urolithin A 0.2% ointment): absence of significantly greater efficiency
Anti-inflammatory (ear edema) effect compared to hydrocortisone 1% ([2]; urolithin A 1% ointment, p<0.05): significantly greater anti-inflammatory effect compared to hydrocortisone
Ear edema reduction, urolithin vs. hydrocortisone (2-factor ANOVA) ([2]; urolithin A (both doses) vs. 1% hydrocortisone, p<0.05): stronger
Histology of skin lesions [3]: Mild epidermal hyperplasia, infiltration of mononuclear cells (mast cells) and neutrophils. A slight infiltration of inflammatory cells around the blood vessels
TNF-alpha production by THP-1 derived macrophages [4]: inhibition of pro-inflammatory cytokine TNF-alpha production
Stability (degradation / change in chemical structure) [5]: stable
